# Results reported in the supplement of paper PMC10307832.
# Experiments:
# Experiment in all cases: relative viability (nuclei count vs DMSO), 5 days (fraction); higher = more cells survive
# [1] = compound: CN[C@@H]1C[C@H]2O[C@@](C)([C@@H]1OC)n1c3ccccc3c3c4c(c5c6ccccc6n2c5c31)C(=O)NC4 [Staurosporine] + Nc1ncn([C@H]2C[C@H](O)[C@@H](CO)O2)c(=O)n1 [Decitabine] (partner 2 µM)
# Procedure, shortened: (§1)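 Lung cancer cell lines in 1536-well plates were dosed by pin tool the day after seeding, either with one drug alone or with a fixed anchor-drug dose plus five library-drug doses (not always all listed) in √10 steps. After 5 days, cells were fixed and their nuclei stained in one step (final 0.05% Triton X-100, 1% formaldehyde, 1 ug/ml Hoechst), then counted on 4× images. Relative viability is the nuclei count in treated wells divided by that in vehicle wells. Values are medians of duplicate plates.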
# [2] = compound: O=c1[nH]cc(F)c(=O)[nH]1 [5-Fluorouracil] + O=C(CCCCCCC(=O)Nc1ccccc1)NO [Vorinostat] (partner 1 µM)
# Procedure, shortened: as §1
# [3] = compound: O=c1[nH]cc(F)c(=O)[nH]1 [5-Fluorouracil] + CC(=O)c1c(C)c2cnc(Nc3ccc(N4CCNCC4)cn3)nc2n(C2CCCC2)c1=O [Palbociclib] (partner 0.5 µM)
# Procedure, shortened: as §1
# [4] = compound: CN[C@@H]1C[C@H]2O[C@@](C)([C@@H]1OC)n1c3ccccc3c3c4c(c5c6ccccc6n2c5c31)C(=O)NC4 [Staurosporine] + Cc1nc(NC(=O)N2CCC[C@H]2C(N)=O)sc1-c1ccnc(C(C)(C)C(F)(F)F)c1 [Alpelisib] (partner 2 µM)
# Procedure, shortened: as §1
Cell Line,relative viability ([1]; first compound 0.005 µM),relative viability ([1]; first compound 0.01581 µM),relative viability ([1]; first compound 0.05 µM),relative viability ([1]; first compound 0.1581 µM),relative viability ([1]; first compound 0.5 µM),relative viability ([2]; first compound 0.02 µM),relative viability ([2]; first compound 0.2 µM),relative viability ([2]; first compound 0.6325 µM),relative viability ([3]; first compound 0.02 µM),relative viability ([3]; first compound 0.2 µM),relative viability ([3]; first compound 0.6325 µM),relative viability ([3]; first compound 2 µM),relative viability ([4]; first compound 0.005 µM),relative viability ([4]; first compound 0.01581 µM),relative viability ([4]; first compound 0.05 µM),relative viability ([4]; first compound 0.1581 µM),relative viability ([4]; first compound 0.5 µM),relative viability ([2]; first compound 2 µM)
NCI-H441,0.226,0.192,0.238,0.129,0.0673,0.862,0.581,0.327,0.238,0.264,0.178,0.249,0.615,0.328,0.316,0.218,0.229,–
ABC-1,0.578,0.563,0.353,0.259,0.157,0.982,1.24,0.963,0.749,0.794,0.883,0.49,0.535,0.255,0.168,0.182,0.0986,0.834
LK-2,0.327,0.173,0.369,0.0995,0.0618,0.275,0.3,0.303,0.568,0.618,0.155,0.257,1.24,1.18,0.451,0.191,0.0868,0.304
NCI-H2085,0.527,0.4,0.463,0.364,0.352,0.754,0.96,0.728,0.434,0.504,0.473,0.5,0.609,0.53,0.495,0.343,0.28,0.651
NCI-H650,0.343,0.411,0.258,0.235,0.188,0.414,0.309,0.264,0.316,0.278,0.244,0.263,0.517,0.318,0.306,0.288,0.178,0.251
SK-MES-1,0.32,0.239,0.204,0.136,0.121,1.2,0.404,0.306,0.337,0.285,0.244,0.277,0.849,0.534,0.246,0.18,0.177,0.302
NCI-H1793,0.341,–,0.311,0.125,0.191,0.801,0.814,0.723,0.285,0.299,0.274,0.243,0.774,0.506,0.593,0.383,0.179,0.502
NCI-H3122,0.541,–,0.602,–,0.329,0.985,0.867,0.392,0.216,0.174,0.175,0.174,1.07,0.302,0.758,0.209,0.217,–
LCLC-103H,0.753,0.484,0.34,0.299,0.278,0.808,0.829,0.673,0.476,0.472,0.471,0.471,1.07,0.513,0.365,0.221,0.178,0.469
NCI-H358,0.244,0.213,0.121,0.0796,0.0666,0.837,0.664,0.529,0.157,0.146,0.15,0.177,0.553,0.222,0.19,0.144,0.161,0.192
NCI-H1755,0.757,0.634,0.483,0.336,0.133,0.777,0.493,0.307,0.448,0.501,0.409,0.376,0.591,0.418,0.183,0.16,0.14,0.306
EPLC-272H,0.367,0.193,0.203,0.102,0.0597,0.621,0.401,0.279,0.319,0.36,0.3,0.343,0.977,0.122,0.459,0.156,0.188,0.241
